# Data from patent US8367328B2, “Method for synthesizing DNA” (Takara Bio Inc., priority 1998, dated 2013).
# Biological target: T1, Taq DNA Polymerase (Thermus aquaticus, UniProt P19821)
# T1 construct: purchased Takara Shuzo Co., Ltd
# Experiment: PCR with Taq DNA Polymerase in the presence of cationic complexes
# Format: biochemical
# Conditions: for Amount of amplified DNA relative to No Addition (=1), Taq: 100 pg E. coli JM109 genomic DNA, primers Eco1/Eco2, 30 cycles 98°C 5 s–68°C 2 min, FM-BIO 100
# Source text: Using hexaamminecobalt (III) chloride ([Co(NH3)6]Cl3) (manufactured by Sigma), tris(ethylenediamine)cobalt (III) chloride ([Co(C2H8N2)3]Cl3) (manufactured by Aldrich), or tris(ethylenediamine)rhodium (III) trichloride•trihydrate ([Rh(C2H8N2)3]Cl3.3H2O) (manufactured by Aldrich), the effects on the amplification reaction by various kinds of DNA polymerases were examined. As the DNA polymerases, TaKaRa Taq DNA Polymerase (hereinafter referred to as “Taq DNA Polymerase” manufactured by Takara Shuzo Co., Ltd.), Pyrobest DNA Polymerase (manufactured by Takara Shuzo Co., Ltd.) and Ex Taq DNA Polymerase (manufactured by Takara Shuzo Co., Ltd.) were used.
# A reaction mixture comprising Escherichia coli JM109 genomic DNA as a template, primers Eco1 and Eco2 as a primer pair, and DNA polymerase was prepared, and PCR was carried out. The compositions of the reaction mixture for each enzyme are as follows.
# 5 μl of buffer for 10×Taq PCR buffer (manufactured by Takara Shuzo Co., Ltd.), 0.2 mM each of dATP, dCTP, dGTP and dTTP, 1.25 U of Taq DNA Polymerase, 100 pg of Escherichia coli JM109 genomic DNA, and 10 pmol each of primers Eco1 and Eco2 (a final volume being 50 μl).
# Further, an aqueous solution of the above-mentioned complexes each so as to have a final concentration of 50 μM, 100 μM, or 200 μM was added to the above reaction mixture.
# The reaction was carried out in Fast mode by using TaKaRa PCR Thermal Cycler Personal (manufactured by Takara Shuzo Co., Ltd.). The reaction conditions are as follows. When using Taq DNA Polymerase and Pyrobest DNA Polymerase, the reaction in 30 cycles was carried out for each of these reaction mixtures, wherein one cycle of reaction comprises a process consisting of 98° C., 5 seconds—68° C., 2 minutes, and when using ExTaq DNA Polymerase, the reaction in 30 cycles was carried out for each of these reaction mixtures, wherein one cycle of reaction comprises a process consisting of 98° C., 5 seconds—68° C., 1 minute. After the termination of the reaction, 5 μl of the resulting reaction mixture was subjected to electrophoresis on 2% agarose gel containing ethidium bromide in an amount of 0.00005%. The gel after the electrophoresis was subjected to ultraviolet irradiation to visualize the band ascribed to the amplified product, whereby an amplified fragment was confirmed. The amount of amplified DNA was numerically explained by using a fluorescent image analyzer FM-BIO 100 (manufactured by Takara Shuzo Co., Ltd.).
# The DNA polymerases used and the composition for the reaction mixture were similar to those in Example 17, except for the cationic complex, where in cases of using Taq DNA Polymerase and Pyrobest DNA Polymerase, hexaamminecobalt (III) chloride was added so as to have a final concentration of 100 μM, and in a case of using ExTaq DNA Polymerase, hexaamminecobalt (III) chloride was added so as to have a final concentration of 50 μM, respectively.
# The reaction was carried out in Fast mode by using TaKaRa PCR Thermal Cycler Personal. The reaction conditions are as follows. When using Taq DNA Polymerase and Pyrobest DNA Polymerase, the reaction in 30 cycles was carried out, wherein one cycle of reaction comprises a process consisting of 98° C., […], 60 seconds or 80 seconds or 100 seconds or 120 seconds. When using ExTaq DNA Polymerase, the reaction in 30 cycles was carried out, wherein one cycle of reaction comprises a process consisting of 98° C., 5 seconds—68° C., 30 seconds or 40 seconds or 50 seconds or 60 seconds.
# On the other hand, as a control, the time period or number of cycles for annealing and extension reaction were determined so as to obtain the same amount of the amount of amplified product for one without addition of the cationic complex mentioned above.
# After the termination of the reaction, 5 μL of the resulting reaction mixture was subjected to electrophoresis on 2% agarose gel containing ethidium bromide in an amount of 0.00005%. […]
# T1 sequence (P19821 whole entry): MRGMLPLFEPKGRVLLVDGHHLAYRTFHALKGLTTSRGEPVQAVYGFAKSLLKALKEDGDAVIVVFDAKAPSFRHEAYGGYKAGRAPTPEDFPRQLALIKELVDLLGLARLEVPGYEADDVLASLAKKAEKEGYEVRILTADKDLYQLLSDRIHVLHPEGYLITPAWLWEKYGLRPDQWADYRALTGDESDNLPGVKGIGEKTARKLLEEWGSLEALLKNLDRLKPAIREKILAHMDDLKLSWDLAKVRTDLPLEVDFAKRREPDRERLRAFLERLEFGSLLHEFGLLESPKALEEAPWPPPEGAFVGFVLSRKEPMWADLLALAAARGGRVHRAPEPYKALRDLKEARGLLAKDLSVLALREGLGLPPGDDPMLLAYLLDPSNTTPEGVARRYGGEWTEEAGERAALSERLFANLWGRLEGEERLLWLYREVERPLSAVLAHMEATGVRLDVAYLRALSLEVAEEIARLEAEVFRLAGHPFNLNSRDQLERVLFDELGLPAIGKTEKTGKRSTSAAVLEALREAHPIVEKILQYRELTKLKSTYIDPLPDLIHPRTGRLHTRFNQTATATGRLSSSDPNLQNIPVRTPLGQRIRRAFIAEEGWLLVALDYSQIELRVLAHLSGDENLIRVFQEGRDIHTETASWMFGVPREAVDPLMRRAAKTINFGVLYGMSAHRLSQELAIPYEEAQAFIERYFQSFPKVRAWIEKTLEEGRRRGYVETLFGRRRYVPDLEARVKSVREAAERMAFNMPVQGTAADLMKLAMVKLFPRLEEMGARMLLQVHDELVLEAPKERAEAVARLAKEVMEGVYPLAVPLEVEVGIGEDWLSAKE
SMILES,"Amount of amplified DNA relative to No Addition (=1), Taq (complex 50 μM)","Amount of amplified DNA relative to No Addition (=1), Taq (complex 100 μM)",Amplification with one-half the usual enzyme amount versus usual amount without addition (Taq 0.625 U + 100 μM complex vs 1.25 U without addition),"Amplification of desired long DNA fragment (Taq, 10 ng E. coli genome, primers Eco1/Eco5 (10 kb), 30 cycles 98°C 5 s–68°C 10 min, 10 μM or 20 μM, only slight without addition)","Reaction time period as fraction of that of no addition (Taq, 100 μM)","Time Period Required (for same amount of amplified product) (Taq, 100 μM complex added, 98°C 5 s–68°C 60 s, 30 cycles (no addition: 120 s, 31 cycles, 4911 s))","Primer amount with which a fragment can still be amplified (Taq, 100 μM complex, primers 2–20 pmol tested, no amplification without addition)","Amount of template DNA at which amplification was still possible (Taq, 100 μM complex, templates 1 pg–1 ng tested, no amplification at 1 pg without addition)","Amplification in low-magnesium reaction mixture (Taq, 0.75 mM magnesium chloride (usual 1.5 mM), 100 μM complex, no amplification without addition)","Amount of amplified DNA relative to No Addition (=1), Taq (complex 200 μM)"
"NCCN.NCCN.NCCN.[Cl-].[Cl-].[Cl-].[Co+3] [[Co(H2NCH2CH2NH2)3]Cl3, tris(ethylenediamine)cobalt (III) chloride]",2.6,3.0,–,–,–,–,–,–,–,–
"N.N.N.N.N.N.[Cl-].[Cl-].[Cl-].[Co+3] [[Co(NH3)6]Cl3, hexaamminecobalt (III) chloride]",2.3,2.9,almost the same level,excellently amplified,about ⅗,2953 s,2 pmol,1 pg,allowed to amplify,–
"NCCN.NCCN.NCCN.O.O.O.[Cl][Rh]([Cl])[Cl] [[Rh(H2NCH2CH2NH2)3]Cl3, tris(ethylenediamine)rhodium (III) trichloride•trihydrate]",1.4,2.1,–,–,–,–,–,–,–,2.5
